Tests used:
Nav1.2 = Nav1.2 (Rattus norvegicus, UniProt P04775)
Nav1.8 = Nav1.8 (Homo sapiens, UniProt Q9Y5Y9); assay type: cell-based
Nav1.4 and 1.5 = assay type: cell-based, rat
Nav1.9 and Nav1.7 = assay type: cell-based, Human
Nav1.4 = Nav1.4 (Cricetulus griseus, UniProt A0A9J7H6F9); assay type: cell-based, Chinese Hamster
[1] = rat; intravenous application; concentrations that do not affect general behaviour and motor function; cited from earlier work
sodium channel = experiment: Guanidine influx assay (14C-guanidine radiotracer flux, in vitro); assay type: cell-based, human or rat; settings: guanidine influx assay using a known cell line that expresses a sodium channel; activity level class
Procedure, shortened: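 Test agents at half-step dilutions around 1 μM are added to plated cells in low-sodium HEPES buffer, then an aconitine/14C-guanidine mixture; after ambient-temperature incubation, cells are washed and counted. IC50 comes from a sigmoidal fit.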

[2] = test system: inactivated state of the channel of interest (sodium channel); experiment: Electrophysiological assay (whole cell voltage clamp, in vitro); assay type: cell-based; settings: affinity for the inactivated state of the channel of interest
Procedure, shortened: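 Whole-cell voltage clamp at ambient temperature on stably transfected cells; CsF-based pipette, pH 7.4 NaCl bath. Current blockade measured at holding potentials of −120 mV (resting, Kr) and one giving 10% availability (inactivated, Ki), held ≥10 s to equilibrate; apparent Kd calculated from fractional block.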

CYP3A4 = CYP3A4 (Homo sapiens, UniProt P08684); experiment: Cytochrome P450 (CYP450) Inhibition Assay, CYP3A4 (Vivid fluorescence, BOMCC substrate); settings: human, P450 Baculosomes (recombinant CYP3A4), probe BOMCC (Vivid substrate)
Chain of CYP3A4 (P08684 whole entry): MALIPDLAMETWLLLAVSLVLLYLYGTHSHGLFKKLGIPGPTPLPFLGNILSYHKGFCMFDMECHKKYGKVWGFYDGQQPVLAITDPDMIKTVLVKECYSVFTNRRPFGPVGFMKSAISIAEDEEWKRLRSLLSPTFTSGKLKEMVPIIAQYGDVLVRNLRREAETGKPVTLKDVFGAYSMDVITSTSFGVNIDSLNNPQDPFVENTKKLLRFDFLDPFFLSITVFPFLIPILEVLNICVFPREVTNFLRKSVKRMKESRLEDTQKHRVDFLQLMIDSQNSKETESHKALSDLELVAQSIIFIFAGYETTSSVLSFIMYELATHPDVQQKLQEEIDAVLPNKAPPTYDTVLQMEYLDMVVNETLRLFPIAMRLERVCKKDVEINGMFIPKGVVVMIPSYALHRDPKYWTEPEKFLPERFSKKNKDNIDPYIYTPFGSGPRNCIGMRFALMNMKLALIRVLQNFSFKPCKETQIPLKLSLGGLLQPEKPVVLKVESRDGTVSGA

Chain of Nav1.4 (A0A9J7H6F9 1-1930): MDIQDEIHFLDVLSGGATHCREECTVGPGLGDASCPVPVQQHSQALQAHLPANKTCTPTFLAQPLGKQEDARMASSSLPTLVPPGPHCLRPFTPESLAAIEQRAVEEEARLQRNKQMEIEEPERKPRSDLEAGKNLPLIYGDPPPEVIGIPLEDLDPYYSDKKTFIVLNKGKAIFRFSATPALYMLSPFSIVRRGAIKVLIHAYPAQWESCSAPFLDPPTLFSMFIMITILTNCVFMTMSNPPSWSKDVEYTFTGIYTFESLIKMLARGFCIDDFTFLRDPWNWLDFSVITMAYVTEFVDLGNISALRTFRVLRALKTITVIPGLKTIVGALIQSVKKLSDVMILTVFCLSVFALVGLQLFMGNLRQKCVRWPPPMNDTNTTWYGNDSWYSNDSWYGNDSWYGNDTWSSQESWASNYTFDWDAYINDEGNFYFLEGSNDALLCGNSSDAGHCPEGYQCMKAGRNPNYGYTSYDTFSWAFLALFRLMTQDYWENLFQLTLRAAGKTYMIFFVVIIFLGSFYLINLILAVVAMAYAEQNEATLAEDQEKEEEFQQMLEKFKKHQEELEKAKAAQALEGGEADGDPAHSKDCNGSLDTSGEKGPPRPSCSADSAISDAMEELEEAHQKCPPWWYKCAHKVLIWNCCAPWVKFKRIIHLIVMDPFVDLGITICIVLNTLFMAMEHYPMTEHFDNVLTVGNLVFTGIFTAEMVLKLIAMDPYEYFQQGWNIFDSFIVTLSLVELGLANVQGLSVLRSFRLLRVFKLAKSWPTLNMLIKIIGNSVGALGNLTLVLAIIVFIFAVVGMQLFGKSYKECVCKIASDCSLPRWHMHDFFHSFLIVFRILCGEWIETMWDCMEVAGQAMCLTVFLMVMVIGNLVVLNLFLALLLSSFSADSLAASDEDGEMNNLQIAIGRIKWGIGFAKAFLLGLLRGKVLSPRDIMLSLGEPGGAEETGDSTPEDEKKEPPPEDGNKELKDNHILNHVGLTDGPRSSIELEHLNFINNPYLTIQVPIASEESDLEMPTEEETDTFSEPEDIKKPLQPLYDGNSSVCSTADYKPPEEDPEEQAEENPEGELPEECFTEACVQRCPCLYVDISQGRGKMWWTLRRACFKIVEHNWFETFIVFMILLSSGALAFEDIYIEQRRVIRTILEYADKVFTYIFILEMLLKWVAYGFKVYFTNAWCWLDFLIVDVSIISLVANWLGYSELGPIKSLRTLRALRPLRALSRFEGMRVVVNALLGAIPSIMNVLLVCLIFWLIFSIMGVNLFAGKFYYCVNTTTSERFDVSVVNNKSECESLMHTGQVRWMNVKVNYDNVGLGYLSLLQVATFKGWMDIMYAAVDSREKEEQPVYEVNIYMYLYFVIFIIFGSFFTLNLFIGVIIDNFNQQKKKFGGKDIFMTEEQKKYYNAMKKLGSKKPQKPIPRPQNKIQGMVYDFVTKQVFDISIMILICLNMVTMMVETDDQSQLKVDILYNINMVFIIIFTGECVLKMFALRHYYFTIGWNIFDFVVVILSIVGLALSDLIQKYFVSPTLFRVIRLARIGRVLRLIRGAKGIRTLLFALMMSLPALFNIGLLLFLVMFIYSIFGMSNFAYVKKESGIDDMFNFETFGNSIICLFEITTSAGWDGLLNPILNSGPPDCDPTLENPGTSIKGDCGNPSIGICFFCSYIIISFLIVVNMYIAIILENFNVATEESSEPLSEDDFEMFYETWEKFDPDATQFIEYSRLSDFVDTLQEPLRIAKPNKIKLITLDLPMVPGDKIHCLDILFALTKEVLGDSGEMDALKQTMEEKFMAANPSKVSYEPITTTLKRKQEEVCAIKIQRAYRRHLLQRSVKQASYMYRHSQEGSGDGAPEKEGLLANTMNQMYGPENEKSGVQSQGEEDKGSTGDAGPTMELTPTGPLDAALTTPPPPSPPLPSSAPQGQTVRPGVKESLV
Chain of Nav1.8 (Q9Y5Y9 whole entry, looked up): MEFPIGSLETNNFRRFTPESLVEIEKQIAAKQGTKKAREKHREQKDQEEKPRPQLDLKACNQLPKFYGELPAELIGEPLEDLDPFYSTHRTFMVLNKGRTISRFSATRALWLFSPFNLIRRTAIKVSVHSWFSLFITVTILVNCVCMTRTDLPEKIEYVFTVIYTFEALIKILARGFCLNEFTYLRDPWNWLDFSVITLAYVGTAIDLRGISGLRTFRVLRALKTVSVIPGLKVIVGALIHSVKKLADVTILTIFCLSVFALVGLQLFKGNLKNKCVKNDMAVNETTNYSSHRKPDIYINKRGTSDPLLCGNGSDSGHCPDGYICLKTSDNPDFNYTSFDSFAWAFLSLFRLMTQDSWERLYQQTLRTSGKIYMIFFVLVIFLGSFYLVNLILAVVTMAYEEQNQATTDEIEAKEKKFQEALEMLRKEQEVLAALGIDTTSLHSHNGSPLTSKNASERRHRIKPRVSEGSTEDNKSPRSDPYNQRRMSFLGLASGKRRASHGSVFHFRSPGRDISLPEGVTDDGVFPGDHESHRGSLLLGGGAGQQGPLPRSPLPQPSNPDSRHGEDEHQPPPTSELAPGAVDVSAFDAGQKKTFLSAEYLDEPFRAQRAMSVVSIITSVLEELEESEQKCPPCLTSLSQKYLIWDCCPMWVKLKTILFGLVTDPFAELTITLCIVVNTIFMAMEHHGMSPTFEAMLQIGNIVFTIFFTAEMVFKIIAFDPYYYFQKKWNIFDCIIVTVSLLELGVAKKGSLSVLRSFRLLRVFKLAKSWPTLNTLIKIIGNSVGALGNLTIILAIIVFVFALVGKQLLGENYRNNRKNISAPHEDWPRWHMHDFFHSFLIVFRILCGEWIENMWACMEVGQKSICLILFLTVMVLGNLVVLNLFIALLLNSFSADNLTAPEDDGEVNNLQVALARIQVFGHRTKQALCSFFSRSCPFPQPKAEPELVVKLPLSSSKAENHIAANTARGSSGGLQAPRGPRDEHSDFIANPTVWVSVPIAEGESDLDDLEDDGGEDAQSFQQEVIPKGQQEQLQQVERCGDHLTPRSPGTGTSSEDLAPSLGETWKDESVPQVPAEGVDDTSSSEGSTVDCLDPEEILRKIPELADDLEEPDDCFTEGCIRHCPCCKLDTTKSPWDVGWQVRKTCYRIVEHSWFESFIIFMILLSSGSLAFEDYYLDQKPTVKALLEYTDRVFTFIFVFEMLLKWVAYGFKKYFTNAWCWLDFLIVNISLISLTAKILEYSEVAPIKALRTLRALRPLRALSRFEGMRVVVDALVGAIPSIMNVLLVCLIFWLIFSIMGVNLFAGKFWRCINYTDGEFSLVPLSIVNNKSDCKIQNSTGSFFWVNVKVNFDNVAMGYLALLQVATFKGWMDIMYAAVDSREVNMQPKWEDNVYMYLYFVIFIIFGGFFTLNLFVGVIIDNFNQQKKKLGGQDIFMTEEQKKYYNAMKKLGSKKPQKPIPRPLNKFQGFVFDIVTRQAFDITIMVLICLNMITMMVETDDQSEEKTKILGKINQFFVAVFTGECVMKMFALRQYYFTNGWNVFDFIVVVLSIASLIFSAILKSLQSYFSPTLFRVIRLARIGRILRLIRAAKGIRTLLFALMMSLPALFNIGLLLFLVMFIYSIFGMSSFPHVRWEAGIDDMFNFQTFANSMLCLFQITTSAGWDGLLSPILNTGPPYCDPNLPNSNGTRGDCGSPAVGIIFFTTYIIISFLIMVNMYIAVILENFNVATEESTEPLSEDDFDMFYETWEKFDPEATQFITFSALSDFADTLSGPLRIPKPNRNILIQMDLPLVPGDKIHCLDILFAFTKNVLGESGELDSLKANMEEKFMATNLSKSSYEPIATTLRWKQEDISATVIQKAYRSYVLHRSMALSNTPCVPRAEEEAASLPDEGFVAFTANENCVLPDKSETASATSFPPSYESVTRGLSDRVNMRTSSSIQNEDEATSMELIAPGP

NC1=N[C@H](O)[C@H]2[C@H]3O[C@]4(O)O[C@@H]([C@@H](O)[C@@]2(N1)[C@@H]4O)[C@]3(O)CO [TTX, tetrodotoxin]
block of the increase in [14C] guanidine influx (Nav1.2): guanidine influx was completely
block of the increase in [14C] guanidine influx (Nav1.8): TTX partially blocked influx
block of the increase in [14C] guanidine influx (Nav1.4 and 1.5): partially blocked by TTX at 100 nM
block of the increase in [14C] guanidine influx (Nav1.9 and Nav1.7): background was partially blocked
block of the increase in [14C] guanidine influx (Nav1.4): completely blocked using TTX.

CCN(CC)CC(=O)Nc1c(C)cccc1C [lidocaine]
effect on ectopic activity and tactile allodynia [1]: suppress the ectopic activity and reverse the tactile allodynia

O=C1N(Cc2ccc(C(F)(F)F)o2)c2ccccc2C12COc1cc3c(cc12)OC(F)(F)O3 (stereo not shown) [Example 2.34, 2,2-difluoro-1′-{[5-(trifluoromethyl)furan-2-yl]methyl}spiro[furo[2,3-f][1,3]benzodioxole-7,3′-indol]-2′(1′H)-one]
IC50 (sodium channel): 100 to 1000 nM
melting point: 59 to 60 °C
Ki [2]: > 300 nM
inhibition at 10 µM (CYP3A4): > 50%
